From US20260297060A1, “COMPOUNDS FOR THE DEGRADATION OF MUTANT BRAF” (C4 THERAPEUTICS, INC., priority 2023, published 2026)
Like-named read-outs stand apart in the source and are kept apart here.

Columns and labels:
BRAF V600E = molecular target: T1, BRAF V600E (Homo sapiens, UniProt P15056+Q96SW2, V600E); assay: BRAF V600E HiBiT Degradation Assay; assay type: cell-based; conditions: for Emax / HiBiT-Degradation A375.10 BRAF 2 hours Emax: residual protein remaining
T1 construct: knock-in of the HiBiT tag to the endogenous BRAF V600E locus; host or cells: A375.10 (A375 clonal line, CRISPR HiBiT knock-in at the endogenous BRAF V600E locus)
T1 sequence (P15056 whole entry V600E): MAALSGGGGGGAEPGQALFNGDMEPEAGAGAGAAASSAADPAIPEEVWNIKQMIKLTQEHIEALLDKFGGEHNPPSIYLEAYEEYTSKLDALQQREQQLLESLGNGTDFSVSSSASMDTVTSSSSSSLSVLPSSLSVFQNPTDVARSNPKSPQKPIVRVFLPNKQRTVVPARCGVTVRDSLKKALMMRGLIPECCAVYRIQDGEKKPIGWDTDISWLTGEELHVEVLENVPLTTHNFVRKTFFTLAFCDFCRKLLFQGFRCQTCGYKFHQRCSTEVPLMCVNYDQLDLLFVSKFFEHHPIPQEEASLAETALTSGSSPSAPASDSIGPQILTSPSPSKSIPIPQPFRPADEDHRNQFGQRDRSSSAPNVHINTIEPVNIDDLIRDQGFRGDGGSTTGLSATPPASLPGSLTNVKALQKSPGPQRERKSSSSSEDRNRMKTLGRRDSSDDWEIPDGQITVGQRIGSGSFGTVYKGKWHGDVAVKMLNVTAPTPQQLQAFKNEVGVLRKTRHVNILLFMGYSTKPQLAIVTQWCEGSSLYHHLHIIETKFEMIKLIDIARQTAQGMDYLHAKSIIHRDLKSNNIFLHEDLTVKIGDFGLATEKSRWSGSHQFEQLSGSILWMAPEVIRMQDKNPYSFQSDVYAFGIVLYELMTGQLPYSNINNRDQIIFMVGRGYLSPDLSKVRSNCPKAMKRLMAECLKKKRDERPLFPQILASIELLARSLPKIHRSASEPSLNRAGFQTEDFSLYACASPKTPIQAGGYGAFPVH
T1 sequence (Q96SW2 whole entry): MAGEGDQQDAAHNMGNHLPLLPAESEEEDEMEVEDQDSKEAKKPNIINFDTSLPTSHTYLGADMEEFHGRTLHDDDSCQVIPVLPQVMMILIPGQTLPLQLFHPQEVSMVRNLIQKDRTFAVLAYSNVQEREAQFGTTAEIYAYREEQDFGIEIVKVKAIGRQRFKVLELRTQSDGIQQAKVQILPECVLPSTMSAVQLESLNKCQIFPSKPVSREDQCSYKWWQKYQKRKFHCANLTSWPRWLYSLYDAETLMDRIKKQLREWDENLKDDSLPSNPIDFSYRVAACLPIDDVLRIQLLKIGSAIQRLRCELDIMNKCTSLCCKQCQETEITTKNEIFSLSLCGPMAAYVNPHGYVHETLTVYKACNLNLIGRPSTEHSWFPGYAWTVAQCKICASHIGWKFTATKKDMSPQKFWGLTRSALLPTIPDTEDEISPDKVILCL
T1 sequence (Q16531 whole entry partner): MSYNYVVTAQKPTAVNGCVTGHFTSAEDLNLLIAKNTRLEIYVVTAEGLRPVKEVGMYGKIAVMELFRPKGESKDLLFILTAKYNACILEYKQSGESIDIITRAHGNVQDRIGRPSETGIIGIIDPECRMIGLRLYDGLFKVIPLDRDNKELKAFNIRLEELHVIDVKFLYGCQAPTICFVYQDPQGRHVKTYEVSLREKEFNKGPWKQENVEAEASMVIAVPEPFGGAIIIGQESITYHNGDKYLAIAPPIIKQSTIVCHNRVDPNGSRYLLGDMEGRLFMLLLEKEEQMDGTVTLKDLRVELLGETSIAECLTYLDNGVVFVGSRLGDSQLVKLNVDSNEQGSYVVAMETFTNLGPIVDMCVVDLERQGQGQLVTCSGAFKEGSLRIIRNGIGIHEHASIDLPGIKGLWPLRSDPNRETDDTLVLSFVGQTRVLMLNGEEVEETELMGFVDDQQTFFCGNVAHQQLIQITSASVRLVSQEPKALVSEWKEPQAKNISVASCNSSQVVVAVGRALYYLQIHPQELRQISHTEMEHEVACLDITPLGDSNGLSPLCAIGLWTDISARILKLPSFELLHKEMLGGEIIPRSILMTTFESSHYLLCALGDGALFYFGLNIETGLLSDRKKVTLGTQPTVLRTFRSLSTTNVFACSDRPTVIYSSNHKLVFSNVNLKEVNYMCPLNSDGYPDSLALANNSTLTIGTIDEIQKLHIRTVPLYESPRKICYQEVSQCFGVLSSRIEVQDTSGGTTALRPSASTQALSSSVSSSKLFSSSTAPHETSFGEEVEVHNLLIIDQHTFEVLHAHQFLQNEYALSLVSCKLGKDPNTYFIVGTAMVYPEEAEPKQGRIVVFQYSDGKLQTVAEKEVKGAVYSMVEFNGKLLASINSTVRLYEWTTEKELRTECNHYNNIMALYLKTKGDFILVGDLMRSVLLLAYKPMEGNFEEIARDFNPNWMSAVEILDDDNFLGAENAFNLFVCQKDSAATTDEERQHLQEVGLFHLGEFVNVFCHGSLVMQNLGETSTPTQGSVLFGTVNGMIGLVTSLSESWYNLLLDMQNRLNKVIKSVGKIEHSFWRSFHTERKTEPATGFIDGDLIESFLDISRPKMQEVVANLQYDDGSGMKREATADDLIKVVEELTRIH
Procedure, shortened: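 Endogenous HiBiT knock-in on BRAF V600E in A375 cells (clone A375.10); 11-point half-log series, top 10 μM, 2, 6 or 24 h at 37° C. Lytic HiBiT luminescence, background-subtracted, normalized to DMSO; 4-parameter fit gives DC50, Emax (residual protein) and IP (inflection point).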

A375-NRAS^Q61K cells = assay: CTGlo Cell Viability Assay, A375-NRAS^Q61K (A375.11) cells, 96 hours; assay type: cell-based, human; conditions: A375.11 (A375-NRAS^Q61K) cells
Procedure, shortened: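 A375 cells carrying BRAF V600E and NRAS Q61K were seeded at 250 cells/well with a 10-point half-log dose series (max 10 μM final). After 96 h at 37 °C, viability was read as ATP luminescence (CellTiter-Glo), background-subtracted and normalized to DMSO (100%). GI50 from 4-parameter fit; Emax is the lowest % viability.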

[1] = A375.10 cells, BRAF V600E, 2 hours, read-out: HiBiT-Degradation A375.10 BRAF 2 hours DC50
[2] = A375.10 cells, BRAF V600E, 2 hours, inflection point, read-out: HiBiT-Degradation A375.10 BRAF 2 hours IP
[3] = A375.10 cells, BRAF V600E, 2 hours, read-out: HiBiT-Degradation A375.10 BRAF 2 hours Emax
[4] = Homo sapiens, 96 h, lowest % viability achieved
[5] = A375.10 cells, BRAF V600E, 2 hours
[6] = read-out: HiBiT-Degradation A375.10 BRAF 2 hours Emax, A375.10 cells, BRAF V600E, 2 hours
[7] = read-out: HiBiT-Degradation A375.10 BRAF 2 hours DC50, A375.10 cells, BRAF V600E, 2 hours
[8] = read-out: HiBiT-Degradation A375.10 BRAF 2 hours IP, A375.10 cells, BRAF V600E, 2 hours, inflection point

CCN(C)S(=O)(=O)Nc1ccc(F)c(Oc2ccc3ncn(C4CC5(CCN(C6CC7(C6)CN(c6cc8c(cc6F)c(N6CCC(=O)NC6=O)nn8C)C7)C5)C4)c(=O)c3c2)c1C#N (single isomer, unassigned) [Compound 302, 6-[2-cyano-3-[[ethyl(methyl)sulfamoyl]amino]-6-fluoro-phenoxy]-3-[6-[2-[3-(2,4-dioxohexahydropyrimidin-1-yl)-5-fluoro-1-methyl-indazol-6-yl]-2-azaspiro[3.3]heptan-6-yl]-6-azaspiro[3.4]octan-2-yl]-4-oxo-quinazoline]
DC50 (BRAF V600E; [1]): < 1 µM
GI50 (A375-NRAS^Q61K cells): < 1 µM

CCN(C)S(=O)(=O)Nc1ccc(F)c(Oc2ccc3ncn(C4CC5(CCN(C6CCN(c7cc8c(cc7F)c(N7CCC(=O)NC7=O)nn8C)CC6)C5)C4)c(=O)c3c2)c1C#N (single isomer, unassigned) [Compound 307, 6-[2-cyano-3-[[ethyl(methyl)sulfamoyl]amino]-6-fluoro-phenoxy]-3-[6-[1-[3-(2,4-dioxohexahydropyrimidin-1-yl)-5-fluoro-1-methyl-indazol-6-yl]-4-piperidyl]-6-azaspiro[3.4]octan-2-yl]-4-oxo-quinazoline]
DC50 (BRAF V600E; [2]): < 1 µM
DC50 (BRAF V600E; [1]): 1 to 10 µM
Emax (BRAF V600E; [3]): 50 to 90%
GI50 (A375-NRAS^Q61K cells; Homo sapiens, 96 h): 1 to 10 µM
Emax (A375-NRAS^Q61K cells; [4]): 50 to 90%

CN(CCO)S(=O)(=O)Nc1ccc(F)c(Oc2ccc3ncc(C4CC5(C4)CN(C4CCC(c6cc7c(cc6F)c(N6CCC(=O)NC6=O)nn7C)CC4)C5)nc3c2)c1C#N (single isomer, unassigned) [Compound 321, 7-[2-cyano-6-fluoro-3-[[2-hydroxyethyl(methyl)sulfamoyl]amino]phenoxy]-2-[2-[4-[3-(2,4-dioxohexahydropyrimidin-1-yl)-5-fluoro-1-methyl-indazol-6-yl]cyclohexyl]-2-azaspiro[3.3]heptan-6-yl]quinoxaline]
DC50 (BRAF V600E; [2]): < 1 µM
DC50 (BRAF V600E; [1]): 1 to 10 µM
HiBiT-Degradation A375.10 BRAF 2 hours Emax (BRAF V600E; [5]): * (>=90%)
GI50 (A375-NRAS^Q61K cells; Homo sapiens, 96 h): > 10 µM
Emax (A375-NRAS^Q61K cells; [4]): 50 to 90%

CN(CCO)S(=O)(=O)Nc1ccc(F)c(Oc2ccc3ncc(C4CC5(C4)CN(C4CCC(c6cc7c(cc6F)c(N6CCC(=O)NC6=O)nn7C)CC4)C5)nc3c2)c1C#N (single isomer, unassigned) [Compound 322, 7-[2-cyano-6-fluoro-3-[[2-hydroxyethyl(methyl)sulfamoyl]amino]phenoxy]-2-[2-[4-[3-(2,4-dioxohexahydropyrimidin-1-yl)-5-fluoro-1-methyl-indazol-6-yl]cyclohexyl]-2-azaspiro[3.3]heptan-6-yl]quinoxaline]
DC50 (BRAF V600E; [2]): < 1 µM
DC50 (BRAF V600E; [1]): 1 to 10 µM
HiBiT-Degradation A375.10 BRAF 2 hours Emax (BRAF V600E; [5]): ** (<90% and >50%)
GI50 (A375-NRAS^Q61K cells): > 10 µM
CTGlo A375.11 96 hours Emax (A375-NRAS^Q61K cells; lowest % viability achieved): ** (<90% and >50%)

CN(CCO)S(=O)(=O)Nc1ccc(F)c(Oc2ccc3ncn([C@H]4COC5(CCN(C6CC7(C6)CN(c6cc8c(cc6F)c(N6CCC(=O)NC6=O)nn8C)C7)CC5)C4)c(=O)c3c2)c1C#N [Compound 130, (3R)-3-[6-[2-cyano-6-fluoro-3-[[2-hydroxyethyl(methyl)sulfamoyl]amino]phenoxy]-4-oxo-quinazolin-3-yl]-8-[2-[3-(2,4-dioxohexahydropyrimidin-1-yl)-5-fluoro-1-methyl-indazol-6-yl]-2-azaspiro[3.3]heptan-6-yl]-1-oxa-8-azaspiro[4.5]decane]
DC50 (BRAF V600E; [2]): < 1 µM
DC50 (BRAF V600E; [1]): < 1 µM
Emax (BRAF V600E; [3]): 50 to 90%
GI50 (A375-NRAS^Q61K cells; Homo sapiens, 96 h): > 10 µM
Emax (A375-NRAS^Q61K cells; [4]): 50 to 90%

CCN(C)S(=O)(=O)Nc1ccc(F)c(Oc2ccc3ncc([C@@H]4COC5(CCN(C6CC7(C6)CN(c6cc8c(cc6F)c(N6CCC(=O)NC6=O)nn8C)C7)CC5)C4)nc3c2)c1C#N [Compound 161, (3R)-3-[7-[2-cyano-3-[[ethyl(methyl)sulfamoyl]amino]-6-fluoro-phenoxy]quinoxalin-2-yl]-8-[2-[3-(2,4-dioxohexahydropyrimidin-1-yl)-5-fluoro-1-methyl-indazol-6-yl]-2-azaspiro[3.3]heptan-6-yl]-1-oxa-8-azaspiro[4.5]decane]
DC50 (BRAF V600E; [2]): < 1 µM
DC50 (BRAF V600E; [1]): > 10 µM
Emax (BRAF V600E; [6]): 50 to 90%
GI50 (A375-NRAS^Q61K cells; Homo sapiens, 96 h): 1 to 10 µM
Emax (A375-NRAS^Q61K cells; [4]): 50 to 90%

CCN(C)S(=O)(=O)Nc1ccc(F)c(Oc2ccc3ncn(C4CC5(CCN(C6CC7(C6)CN(c6cc8c(cc6F)c(N6CCC(=O)NC6=O)nn8C)C7)CC5)C4)c(=O)c3c2)c1F (centres unmarked) [Compound 164, 3-[7-[2-[3-(2,4-dioxohexahydropyrimidin-1-yl)-5-fluoro-1-methyl-indazol-6-yl]-2-azaspiro[3.3]heptan-6-yl]-7-azaspiro[3.5]nonan-2-yl]-6-[3-[[ethyl(methyl)sulfamoyl]amino]-2,6-difluoro-phenoxy]-4-oxo-quinazoline]
DC50 (BRAF V600E; [2]): < 1 µM
DC50 (BRAF V600E; [1]): < 1 µM
Emax (BRAF V600E; [3]): 50 to 90%
GI50 (A375-NRAS^Q61K cells; Homo sapiens, 96 h): 1 to 10 µM
Emax (A375-NRAS^Q61K cells; [4]): 50 to 90%

CN(CCO)S(=O)(=O)Nc1ccc(F)c(Oc2ccc3ncn([C@H]4COC5(CCN([C@H]6C[C@@H](c7cc8c(cc7F)c(N7CCC(=O)NC7=O)nn8C)C6)CC5)C4)c(=O)c3c2)c1C#N [Compound 165, (3R)-3-[6-[2-cyano-6-fluoro-3-[[2-hydroxyethyl(methyl)sulfamoyl]amino]phenoxy]-4-oxo-quinazolin-3-yl]-8-[3-[3-(2,4-dioxohexahydropyrimidin-1-yl)-5-fluoro-1-methyl-indazol-6-yl]cyclobutyl]-1-oxa-8-azaspiro[4.5]decane]
DC50 (BRAF V600E; [2]): < 1 µM
DC50 (BRAF V600E; [1]): < 1 µM
Emax (BRAF V600E; [3]): 50 to 90%
GI50 (A375-NRAS^Q61K cells; Homo sapiens, 96 h): > 10 µM
Emax (A375-NRAS^Q61K cells; [4]): 50 to 90%

CN(CCO)S(=O)(=O)Nc1ccc(F)c(Oc2ccc3ncn([C@H]4COC5(CCN([C@H]6C[C@@H](c7ccc(NC8CCC(=O)NC8=O)cc7F)C6)CC5)C4)c(=O)c3c2)c1C#N (stereo partly drawn) [Compound 168, (3R)-3-[6-[2-cyano-6-fluoro-3-[[2-hydroxyethyl(methyl)sulfamoyl]amino]phenoxy]-4-oxo-quinazolin-3-yl]-8-[3-[4-[(2,6-dioxo-3-piperidyl)amino]-2-fluoro-phenyl]cyclobutyl]-1-oxa-8-azaspiro[4.5]decane]
DC50 (BRAF V600E; [2]): < 1 µM
DC50 (BRAF V600E; [1]): < 1 µM
Emax (BRAF V600E; [3]): 50 to 90%
GI50 (A375-NRAS^Q61K cells; Homo sapiens, 96 h): > 10 µM
Emax (A375-NRAS^Q61K cells; [4]): 50 to 90%

CCN(C)S(=O)(=O)Nc1ccc(F)c(Oc2ccc3ncn([C@H]4COC5(CCN(C6CC7(C6)CN(c6cc8c(cc6F)c(N6CCC(=O)NC6=O)nn8C)C7)CC5)C4)c(=O)c3c2)c1F [Compound 186, (3R)-8-[2-[3-(2,4-dioxohexahydropyrimidin-1-yl)-5-fluoro-1-methyl-indazol-6-yl]-2-azaspiro[3.3]heptan-6-yl]-3-[6-[3-[[ethyl(methyl)sulfamoyl]amino]-2,6-difluoro-phenoxy]-4-oxo-quinazolin-3-yl]-1-oxa-8-azaspiro[4.5]decane]
Emax (BRAF V600E; [3]): 50 to 90%
DC50 (BRAF V600E; [7]): < 1 µM
DC50 (BRAF V600E; [8]): < 1 µM
GI50 (A375-NRAS^Q61K cells; Homo sapiens, 96 h): 1 to 10 µM
Emax (A375-NRAS^Q61K cells; [4]): > 90%

CN(CCO)S(=O)(=O)Nc1ccc(F)c(Oc2ccc3ncc(C4CC5(CCN(C6CC7(C6)CN(c6cc8c(cc6F)c(N6CCC(=O)NC6=O)nn8C)C7)CC5)C4)nc3c2)c1C#N (centres unmarked) [Compound 187, 7-[2-cyano-6-fluoro-3-[[2-hydroxyethyl(methyl)sulfamoyl]amino]phenoxy]-2-[7-[2-[3-(2,4-dioxohexahydropyrimidin-1-yl)-5-fluoro-1-methyl-indazol-6-yl]-2-azaspiro[3.3]heptan-6-yl]-7-azaspiro[3.5]nonan-2-yl]quinoxaline]
Emax (BRAF V600E; [3]): 50 to 90%
DC50 (BRAF V600E; [7]): 1 to 10 µM
DC50 (BRAF V600E; [8]): < 1 µM
GI50 (A375-NRAS^Q61K cells; Homo sapiens, 96 h): > 10 µM
Emax (A375-NRAS^Q61K cells; [4]): 50 to 90%

CCN(C)S(=O)(=O)Nc1ccc(F)c(Oc2ccc3ncn(C4CC5(CCN(C6CC7(C6)CN(c6ccc(NC8CCC(=O)NC8=O)cc6F)C7)CC5)C4)c(=O)c3c2)c1F (centres unmarked) [Compound 188, 3-[7-[2-[4-[(2,6-dioxo-3-piperidyl)amino]-2-fluoro-phenyl]-2-azaspiro[3.3]heptan-6-yl]-7-azaspiro[3.5]nonan-2-yl]-6-[3-[[ethyl(methyl)sulfamoyl]amino]-2,6-difluoro-phenoxy]-4-oxo-quinazoline]
DC50 (BRAF V600E; [2]): < 1 µM
DC50 (BRAF V600E; [1]): < 1 µM
Emax (BRAF V600E; [3]): 50 to 90%
GI50 (A375-NRAS^Q61K cells; Homo sapiens, 96 h): > 10 µM
Emax (A375-NRAS^Q61K cells; [4]): 50 to 90%

CCN(C)S(=O)(=O)Nc1ccc(F)c(Oc2ccc3ncn([C@H]4COC5(CCC(N6CC[C@@H](c7ccc(NC8CCC(=O)NC8=O)cc7F)C(F)(F)C6)CC5)C4)c(=O)c3c2)c1C#N (stereo partly drawn) [Compound 189, 6-[2-cyano-3-[[ethyl(methyl)sulfamoyl]amino]-6-fluoro-phenoxy]-3-[(3R)-8-[(4S)-4-[4-[(2,6-dioxo-3-piperidyl)amino]-2-fluoro-phenyl]-3,3-difluoro-1-piperidyl]-1-oxaspiro[4.5]decan-3-yl]-4-oxo-quinazoline]
DC50 (BRAF V600E; [2]): < 1 µM
DC50 (BRAF V600E; [1]): < 1 µM
Emax (BRAF V600E; [6]): 50 to 90%
GI50 (A375-NRAS^Q61K cells; Homo sapiens, 96 h): > 10 µM
Emax (A375-NRAS^Q61K cells; [4]): < 50%
